PMC8174488, “4-Arylthiosemicarbazide derivatives as a new class of tyrosinase inhibitors and anti-Toxoplasma gondii agents” (Journal of Enzyme Inhibition and Medicinal Chemistry, 2021)

Legend:
[1] = test system: L929 cells; experiment: Cell viability assay (MTT, ISO 10993-5) on L929 mouse fibroblasts; assay type: cell-based; conditions: 24 h, concentration for 30% inhibition of cell proliferation
Source text: First, we evaluated the cytotoxic effects of 1b–9b, which is necessary prior to measuring anti-Toxoplasma and Tyr inhibition in order to exclude cytotoxic compounds. […] Cytotoxicity was estimated using mouse fibroblast (L929) cells line via MTT assay, according to the international standards ISO 10993–5:2009(E). […] Therefore, the obtained results were expressed as CC30, which was defined as the highest concentration of the compound that causes 30% damage of cells and was considered according to ISO as non-toxic.
The L929 mouse fibroblast (ATTC® CCL-1™, Manassas, VA) was routinely maintained in RPMI 1640 media (R8758, Sigma-Aldrich, Suffolk, UK), supplemented with 10% foetal bovine serum (Foetal Bovine Serum, ATCC® 30–2020™), 100 I.U./mL penicillin and 100 µg/mL streptomycin (Penicillin-Streptomycin Solution ATCC® 30–2300™). Cells were trypsinised (Trypsin-EDTA Solution, 1X ATCC® 30–2101™) twice a week and seeded at a density of 1 × 10^6 per T25 cell culture flask and incubated at 37 °C and 10% CO2 to achieve a confluent monolayer.
Cell viability assay was performed according to international standards (ISO 10993–5:2009(E)), using tetrazolium salt (MTT, Sigma-Aldrich) and mouse fibroblasts L929 cells. Culture medium RPMI 1640, without phenol red (Biowest, Nuaille, France) supplemented with 10% FBS, 2 mM L-glutamine (Sigma-Aldrich), 100 I.U./mL penicillin, 100 µg/mL streptomycin were used. Briefly, 1 × 10^4/well of L929 cells were placed in 96-well plates and incubated for 24 h at 37 °C and 10% CO2. Afterwards, the old culture medium was replaced with 100 µL of the compound, drug or inhibitor, diluted in culture medium, and the cells treated for 24 h. Additionally, cells were treated with 0.03–4.0% concentration of DMSO as the solvent (data not shown). Then, 50 µL of 1 mg/mL of MTT solution in RPMI 1640 without phenol red was added to each well and incubated for 2 h at 37 °C and 10% CO2. Next, cell culture medium was aspirated carefully and 150 µL of DMSO was added to each well, and the plates were gently mixed. Then, 25 µL 0.1 M glycine buffer (pH 10.5) (Sigma-Aldrich) was added. The optical density at 570 nm using a multi-mode microplate reader SpectraMax® i3 (Syngen, Taipei City, Taiwan) was recorded. The results were expressed as a percentage of viability compared to untreated cells. All experiments were performed in triplicate. Cytotoxicity assay using human fibroblast Hs27 cells was also performed as described above (included in Supplementary Material).

[2] = test system: T. gondii RH strain; experiment: Antiparasitic assay: T. gondii RH proliferation in Hs27 cells, [3H]uracil incorporation; assay type: cell-based, Toxoplasma gondii
[3] = test system: Toxoplasma gondii; conditions: Toxoplasma gondii proliferation; cited from earlier work

With COc1cc(Cc2cnc(N)nc2N)cc(OC)c1OC [Trimethoprim (TRI), Trimethoprim, reference compound] the CC30 [1] was 61.25 µM, the IC50 ([2]; Toxoplasma gondii, HS27) was 50.9 µM and the “SR (selectivity ratio)” value ([2]; ratio of CC30 (L929) to IC50Tg) was 1.20. For the same compound, the IC50 [3] was 50.9 µM.
